Assays:
Hepatocyte [1] = assay: Antihyperglycemic activity in Sprague-Dawley rat hepatocytes assessed as inhibition of glucose production at 40 uM after 6 hrs by glucose oxidase activity assay; type: functional
Saccharomyces cerevisiae = assay: Inhibition of Saccharomyces cerevisiae alpha-glucosidase using 4-nitrophenyl alpha-glucopyranoside as substrate at 6.25 mM preincubated for 10 mins followed by substrate addition measured after 20 mins by spectrophotometric analysis
[2] = biological target: T1, Angiotensin-converting enzyme (Oryctolagus cuniculus) (UniProt P12822); assay: Inhibition of rabbit lung ACE using hippuryl-histidyl-leucine as substrate assessed as hippuric acid formation at 10 mM by UPLC-MS analysis
T1 sequence (whole entry): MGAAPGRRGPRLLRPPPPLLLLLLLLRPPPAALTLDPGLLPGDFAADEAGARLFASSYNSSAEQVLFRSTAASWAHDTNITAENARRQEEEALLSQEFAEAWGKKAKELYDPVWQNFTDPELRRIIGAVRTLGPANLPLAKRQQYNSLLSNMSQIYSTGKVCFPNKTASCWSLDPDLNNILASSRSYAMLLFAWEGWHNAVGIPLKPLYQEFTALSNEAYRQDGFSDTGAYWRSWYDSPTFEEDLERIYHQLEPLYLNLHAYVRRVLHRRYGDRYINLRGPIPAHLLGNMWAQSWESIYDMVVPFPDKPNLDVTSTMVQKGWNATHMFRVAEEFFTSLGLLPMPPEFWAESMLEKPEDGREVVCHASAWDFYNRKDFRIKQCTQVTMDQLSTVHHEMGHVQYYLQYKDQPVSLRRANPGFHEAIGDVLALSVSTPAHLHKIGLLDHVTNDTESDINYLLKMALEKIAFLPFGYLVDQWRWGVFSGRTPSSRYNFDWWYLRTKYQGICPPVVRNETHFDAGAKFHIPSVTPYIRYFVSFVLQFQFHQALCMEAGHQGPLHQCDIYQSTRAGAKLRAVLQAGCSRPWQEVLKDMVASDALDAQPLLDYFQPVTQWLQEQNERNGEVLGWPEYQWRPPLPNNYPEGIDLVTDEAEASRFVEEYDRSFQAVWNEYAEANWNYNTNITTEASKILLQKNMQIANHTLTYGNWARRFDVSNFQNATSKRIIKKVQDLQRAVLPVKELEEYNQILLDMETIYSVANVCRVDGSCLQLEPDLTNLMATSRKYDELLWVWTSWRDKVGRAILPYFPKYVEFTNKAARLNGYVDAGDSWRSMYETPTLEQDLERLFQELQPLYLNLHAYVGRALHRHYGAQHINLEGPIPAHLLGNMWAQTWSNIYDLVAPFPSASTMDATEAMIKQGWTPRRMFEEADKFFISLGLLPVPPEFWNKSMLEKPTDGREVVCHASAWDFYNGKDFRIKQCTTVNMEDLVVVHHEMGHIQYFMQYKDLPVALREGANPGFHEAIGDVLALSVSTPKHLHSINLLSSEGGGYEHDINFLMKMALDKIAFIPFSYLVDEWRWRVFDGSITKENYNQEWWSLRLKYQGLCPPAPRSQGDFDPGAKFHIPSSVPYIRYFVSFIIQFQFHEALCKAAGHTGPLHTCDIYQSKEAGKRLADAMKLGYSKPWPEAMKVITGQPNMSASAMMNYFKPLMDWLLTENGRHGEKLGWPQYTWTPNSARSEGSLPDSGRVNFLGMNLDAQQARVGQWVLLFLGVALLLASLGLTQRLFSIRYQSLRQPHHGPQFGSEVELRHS

Hepatocyte [3] = assay: Antihyperglycemic activity in Sprague-Dawley rat hepatocytes assessed as inhibition of glucose production at 2 mM after 6 hrs by glucose oxidase activity assay; type: functional

CC(C)=CCC[C@@H](C(=O)O)[C@@H]1CN(CC(O)CCO)C(=N)N1 (stereo partly specified)
inhibition at 40 µM (Hepatocyte [1]): 18.5%

CC(C)=CCC[C@@H](C(=O)O)[C@@H]1CNC(=N)N1
inhibition at 40 µM (Hepatocyte [1]): 12.5%

CC1(C)C[C@]2(O)C[C@@H](C(=O)[O-])[C@@H]3CNC(=[N+]32)N1
inhibition (Saccharomyces cerevisiae): 20% | inhibition [2]: 26% | inhibition at 40 µM (Hepatocyte [1]): 8.2%

CN(C)C(=N)NC(=N)N [METFORMIN]
inhibition at 2000 µM (Hepatocyte [3]): 25%

Source: ChEMBL document CHEMBL3739390, “Plantadeprate A, a Tricyclic Monoterpene Zwitterionic Guanidium, and Related Derivatives from the Seeds of Plantago depressa” (2015)
